According to US20260092086A1, “ANTIMICROBIAL LASSO PEPTIDES” (priority 2022, published 2026):
Values after ≈ are worked out from the molar mass of the structure shown. Where a SMILES comes first, the peptide text is derived from it.

Tests used:
Thermolysin = target: T1, Thermolysin (Geobacillus stearothermophilus, UniProt P43133); test: Protease digestion, thermolysin; type: in vitro ADME; conditions: 50 μM peptide, 30° C., about 1 hour, LC-MS
T1 construct: purchased Sigma-Aldrich
Method: Thermolysin from Geobacillus stearothermophilus (Sigma-Aldrich) was first resuspended in 50 mM Tris, 0.5 mM CaCl2). The enzyme was then added to 50 μM peptide samples at a final concentration of about 0.04 mg/mL in a buffer of 50 mM Tris, 0.5 mM CaCl2), pH 8. The reactions were then allowed to incubate at 30° C. for about 1 hour before quenching with 1% formic acid. An aliquot was then injected onto LC-MS for analysis.

[1] = system: Salmonella enterica serovar Newport; test: Spot-on-lawn assay in M63 agar; type: cell-based; conditions: purified cloacaenodin in water
Method: (§1) Cloacaenodin was evaluated against several common laboratory strains as well as commercially acquired strains using a spot-on-lawn assay.^45 Strains were streaked out onto LB agar plates and incubated overnight at their recommended temperatures. A single colony was then used to inoculate an overnight culture in 5 mL of LB broth. After shaking at 250 rpm at the recommended temperature for each strain, 50 μL of the overnight culture was used to inoculate 5 mL of LB broth (volume ratio 1:100). These cultures were grown for a few hours until they reached the exponential phase (OD600˜0.4-0.6) before being added to 10 mL of soft M63 agar at a final cell density of 10^7 CFUs/mL, or 10^8 CFUs total in 10 mL. The M63 soft agar was composed of 2 g/L of (NH4)2SO4 (EMD MilliporeSigma), 13.6 g/L of KH2PO4 (Fisher), 40 mg/L of each of the 20 common amino acids, 0.2% glucose (Sigma), 0.00005% w/v thiamine hydrochloride (Sigma), and 0.65% w/v bacteriological-grade agar (Apex Bioresearch). […] Upon solidification, 10 μL of purified cloacaenodin in water at two-fold dilutions were then spotted onto the agar and allowed to dry. The plates were incubated overnight at the strains' recommended temperatures and analyzed the next morning for activity. The MIC is defined as the last dilution where a spot was visible.

[2] = system: Enterobacter nimipressuralis DSM 18955; test: Spot-on-lawn assay in M63 agar; type: cell-based
Method: as §1

[3] = system: Enterobacter kobei BAA-260; test: Spot-on-lawn assay in M63 agar; type: cell-based; conditions: purified cloacaenodin in water
Method: as §1

[4] = system: Klebsiella aerogenes ATCC 13048; test: Spot-on-lawn assay in M63 agar; type: cell-based; conditions: purified cloacaenodin in water
Method: as §1

[5] = system: Enterobacter hormaechei ATCC 700323; test: Spot-on-lawn assay in M63 agar; type: cell-based; conditions: purified cloacaenodin in water
Method: as §1

Kluyvera strain = test: Spot-on-lawn assay, CDC & FDA Antibiotic Resistance Isolate Bank panels; type: cell-based; conditions: carbapenem-resistant CRE/BIT panel strain, M63 agar
Description: (§2) FIG. 42. Spot-on-lawn assays of tested clinical isolates treated with cloacaenodin in M63 agar. From the initial concentration shown to the left of the curved arrow and in the direction of the curved arrow, two-fold serial dilutions of cloacaenodin were spotted. The straight arrows point to the last visible spot on the plate which corresponds to the recorded minimal inhibitory concentration (MIC). Spot 8 is pure water in all plates. AR Bank #0132, AR Bank #0136, AR Bank #0144, and AR Bank #0154 are from the CRE panel. AR Bank #0001 and AR Bank #0002 are from the BIT panel.
(§3) Two panels from the CDC & FDA Antibiotic Resistance Isolate Bank were used: the Enterobacterales Carbapenemase Diversity (CRE) panel and the Enterobacterales Carbapenem Breakpoint (BIT) panel.^81 These panels represent strains with resistance to carbapenems, which are last resort antibiotics: there is an urgent need of new treatments of infections with these strains.
(§4) We tested 6 strains: 4 Enterobacter strains, 1 Kluyvera strain, and 1 Escherichia coli strain.

Enterobacter strains = test: as above; type: cell-based; conditions: three of the four Enterobacter strains of the CRE/BIT panels, M63 agar
Description: as §2, §3, §4

[6] = Heating assay at 95° C., LC-MS; type: physicochemical; conditions: 1.5 hours
Method: The threaded nature of the collected cloacaenodin sample was next sought to be verified, because the threaded structure is crucial to the bioactivity of lasso peptides.^50 Heat treatment of certain lasso peptides leads to their unthreading: the unthreaded species often elutes differently than the threaded peptide.^48,49 We performed a heating assay at 95° C. and noticed that after 1.5 hours ˜5% of cloacaenodin eluted at around 12.4 min instead of 10.5 min (FIGS. 7A-7B). Upon treatment with carboxypeptidase^48,49, this later eluting peak was eliminated, and various earlier-eluting peaks consistent with C-terminal truncations of 6, 9, or 10 amino acids were then observed. These truncations were not observed for the unheated cloacaenodin sample when treated with carboxypeptidase (FIGS. 7A-8B). […] This unthreaded variant in the extract may have formed because of thermal unthreading during expression and purification, exposure to organic solvents during purification, or both. To ensure that the sample we collected from the HPLC remained stable, we froze the sample immediately upon collection until lyophilization, such that the peptide was minimally kept in solution.

[7] = system: Enterobacter ludwigii MGH216; type: cell-based

T1 sequence (P43133 236-551): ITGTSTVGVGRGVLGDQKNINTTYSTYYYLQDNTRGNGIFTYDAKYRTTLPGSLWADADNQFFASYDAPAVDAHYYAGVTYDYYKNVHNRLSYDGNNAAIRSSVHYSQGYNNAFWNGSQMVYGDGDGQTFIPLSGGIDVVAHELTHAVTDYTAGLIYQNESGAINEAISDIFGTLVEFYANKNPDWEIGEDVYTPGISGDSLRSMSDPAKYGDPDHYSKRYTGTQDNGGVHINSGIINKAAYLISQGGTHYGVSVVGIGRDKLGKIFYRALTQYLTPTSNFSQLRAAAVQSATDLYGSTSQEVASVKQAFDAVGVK

Q: What does the source list for `CC[C@H](C)[C@@H]1NC(=O)[C@H](CCCNC(=N)N)NC(=O)[C@H](CC(=O)O)NC(=O)[C@H](C(C)C)NC(=O)[C@H](CO)NC(=O)[C@H](Cc2c[nH]cn2)NC(=O)CNC(=O)CC[C@@H](C(=O)N[C@@H](Cc2ccc(O)cc2)C(=O)N[C@@H](Cc2ccccc2)C(=O)NCC(=O)N2CCC[C@H]2C(=O)N2CCC[C@H]2C(=O)NCC(=O)N[C@@H](CC(C)C)C(=O)N2CCC[C@H]2C(=O)NCC(=O)N2CCC[C@H]2C(=O)N[C@H](C(=O)N[C@@H](CC(C)C)C(=O)N[C@@H](Cc2ccccc2)C(=O)N[C@@H](Cc2ccc(O)cc2)C(=O)N[C@@H](CO)C(=O)O)C(C)C)NC(=O)[C@@H]2CCCN2C1=O` [cloacaenodin] (HELM PEPTIDE1{G.H.S.V.D.R.I.P.E.Y.F.G.P.P.G.L.P.G.P.V.L.F.Y.S}$PEPTIDE1,PEPTIDE1,1:R1-9:R3$$$V2.0; C-terminus assumed)?
A: proteolysis by thermolysin (Thermolysin; listed as Threaded cloacaenodin): resistant to thermolysin digestion; proteolysis by thermolysin (Thermolysin; listed as threaded cloacaenodin): remained resistant to proteolysis; antimicrobial activity (zones of inhibition) [1]: no observed activity; strain susceptible to cloacaenodin ([2]; Lelliottia nimipressuralis DSM 18955): * Lelliottia nimipressuralis; antimicrobial activity (zones of inhibition) ([2]; spot-on-lawn, M63 agar, purified cloacaenodin in water): zones of inhibition in the low micromolar range; antimicrobial activity (zones of inhibition) [3]: no observed activity; antimicrobial activity (zones of inhibition) [4]: no observed activity; antimicrobial activity (zones of inhibition) [5]: no observed activity; antimicrobial activity (Kluyvera strain): single digit micromolar; antimicrobial activity (Enterobacter strains): single digit micromolar; fraction eluting as later (unthreaded) peak after heating [6]: ~5%; MIC in M63 media [7]: 0.23 µM (≈ 0.594 µg/mL)
